How the values were obtained:
K88 fimbriae = target: T1, K88 fimbriae (Escherichia coli, UniProt P14190); test: Inhibition of adherence of I125-labelled K88-fimbriae to brush border membranes from pig small intestine; format: binding, E.coli; conditions: for inhibited the adherence of K88 fimbriae to the brush border membranes: 0.5 ml oligosaccharide solution 5 mg/ml in PBS, 0.5 ml I125-labelled K88 fimbriae 0.5 mg/ml, 1 ml brush border membranes 2 · 10^6 cells/ml, 37°C; for inhibition at 5000 µg/mL: read-out: inhibited the adherence of K88 fimbriae to the brush border membranes
T1 construct: In the experiments I^125-labelled K88 fimbriae at a concentration of 0.5 mg/ml in PBS were used; made in house; host or cells: E. coli O149 K88+ (native fimbriae isolated from the bacteria)
T1 sequence (P14190 22-283 limits assumed): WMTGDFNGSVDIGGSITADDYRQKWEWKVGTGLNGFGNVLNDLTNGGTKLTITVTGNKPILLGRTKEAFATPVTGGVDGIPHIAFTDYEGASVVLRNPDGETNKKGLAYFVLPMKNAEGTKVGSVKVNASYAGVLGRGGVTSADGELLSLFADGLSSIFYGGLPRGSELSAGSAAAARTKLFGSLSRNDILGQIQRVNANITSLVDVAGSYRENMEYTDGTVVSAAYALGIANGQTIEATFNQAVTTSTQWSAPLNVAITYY
Method: In the experiments I^125-labelled K88 fimbriae at a concentration of 0.5 mg/ml in PBS were used. Moreover, brush border membranes prepared according to Sellwood et al at a concentration of 2 · 10^6 cells/ml in PBS were used.
Oligosaccharides tested for their inhibiting ability were dissolved in PBS to a concentration of 5 mg/ml.
In the inhibition tests 0.5 ml I125-labelled K88 fimbriae was incubated with 0.5 ml oligosaccharide solution at 37°C for 30 minutes, 1 ml of the suspension of brush border membranes being then added. After incubation for another 60 minutes at 37°C the mixture was centrifuged for 15 minutes at 600 x g, the radioactivity being then measured in the supernatant. As a control 1 ml of PBS was used.

E.coli = test: Disinfection: removal of bacteria from an infected surface; conditions: 0.1 percent by weight aqueous solution applied by cotton pad onto a surface infected by E.coli
Method: By disinfection is here primarily intended removal of bacteria from a surface, for example a wound.
A 0.1 percent by weight aqueous solution of the compound a-D-Galp-(1-3)-D-Gal is prepared and applied by means of a cotton pad onto a surface infected by E.coli.

Which “inhibited the adherence of K88 fimbriae to the brush border membranes” value (K88 fimbriae) does the source give for `OC[C@H]1O[C@H](O[C@@H]2[C@H](O)[C@@H](O)C(O)O[C@@H]2CO)[C@H](O)[C@@H](O)[C@H]1O` (stereo partly drawn) [α-D-Galp-(1-4)-D-Gal, reference compound] here?
Its value is “inactive”.

For `OC[C@H]1O[C@H](OC[C@H]2OC(O)[C@H](O)[C@@H](O)[C@H]2O)[C@H](O)[C@@H](O)[C@H]1O` (stereo partly drawn) [α-D-Galp-(1-6)-D-Gal, reference compound], which “inhibited the adherence of K88 fimbriae to the brush border membranes” value (K88 fimbriae) is on record?
Its value is “inactive”.

For `OC[C@H]1O[C@H](O[C@H]2[C@@H](O)[C@@H](CO)O[C@H](O[C@H]3[C@@H](O)[C@@H](CO)OC(O)[C@@H]3O)[C@@H]2O)[C@H](O)[C@@H](O)[C@H]1O` (stereo partly drawn) [α-D-Galp-(1-3)-α-D-Galp-(1-3)-D-Gal], which inhibition at 5000 µg/mL (K88 fimbriae) is on record?
Its inhibition at 5000 µg/mL is 79%.

How did the “removal of the bacterium from the surface” value (E.coli) turn out when `OC[C@H]1O[C@H](O[C@H]2[C@@H](O)[C@@H](CO)OC(O)[C@@H]2O)[C@H](O)[C@@H](O)[C@H]1O` (stereo partly drawn) [α-D-Galp-(1-3)-D-Gal] was run?
Its value is “effective removal”.

What about the inhibition at 5000 µg/mL (K88 fimbriae) of the same compound?
The inhibition at 5000 µg/mL was 70%.

With `OC[C@H]1O[C@H](O[C@H]2[C@@H](O)[C@@H](CO)O[C@H](O[C@H]3[C@@H](O)[C@@H](CO)O[C@H](O[C@H]4[C@@H](O)[C@@H](CO)OC(O)[C@@H]4O)[C@@H]3O)[C@@H]2O)[C@H](O)[C@@H](O)[C@H]1O` (stereo partly drawn) [α-D-Galp-(1-3)-α-D-Galp-(1-3)-α-D-Galp-(1-3)-D--Gal] as the compound, how does the inhibition at 5000 µg/mL (K88 fimbriae) read?
Its inhibition at 5000 µg/mL is 73%.

From EP0089940A1, “Compositions for therapeutic or diagnostic use containing oligosaccharides” (priority 1982, dated 1983)
